Laboratory results: paper PMC5074076, “Novel minimal physiologically-based model for the prediction of passive tubular reabsorption and renal excretion clearance” (European Journal of Pharmaceutical Sciences, 2016)
Like-named read-outs stand apart in the source and are kept apart here.

What was measured:
physchem = settings: pH 7.4
Description: (§1) The pKa values associated with ionisable centres identified within a given drug were used to calculate the fraction of drug ionised at pH 6.5. Drugs were then classified into groups as follows: drugs with > 50% unionised at pH 6.5 were classified as “Neutral”; drugs with > 50% ionised as mono −/di −/tri-protic acids or bases were classified as “Acid” or “Base”, respectively; “Zwitterions” were classified as drugs with > 50% ionised, with the major ionised species having no net charge; all other drugs were classified as amphoteric. […] LogD6.5 for neutral, amphoteric and zwitterion drugs were assumed to be equal to LogD7.4.

[1] = Caco-2 apparent permeability (Papp), apical to basolateral, pH 6.5-7.4 gradient, efflux inhibitor cocktail; settings: human, Caco-2, pH 6.5
Protocol: (§2) The assay was performed using the apical to basolateral pH gradient format of pH 6.5 to pH 7.4. […] The efflux transporter inhibitor cocktail was used to minimise the effect of efflux transporters expressed in Caco-2 cells (e.g. P-glycoprotein, BCRP and MRP2) on the estimate of apical to basolateral Papp of substrates for such transporters.

[2] = cited from earlier work; for CLR: healthy adult subjects, overall weighted mean of literature values, absolute (not normalised), ref Supplementary Results Table S2.1; for Overall weighted mean CLR: healthy subjects, plasma and urine data from same subjects, normalised for subject weight and body surface area where necessary; for Overall weighted mean CLR / CLR Observed: ref Table S2.1; for CLR Observed: overall weighted mean of values obtained from a literature survey
[3] = Ionisation classification at pH 6.5 from pKa; assay type: physicochemical; settings: predominant species (> 50%) at pH 6.5 from measured or calculated pKa
Description: as §1

[4] = Observed clearance ratio and fraction reabsorbed (Freab, Freab′) calculated from CLR, fu,p and GFR; settings: for Apparent Freab / Apparent Freab’: calculated from observed CLR, fu,p and GFR; for Freab: observed/apparent, 1 - CLR/(GFR x fu,p), GFR 120 mL/min
Protocol: The clearance ratio was calculated from clinical data using Eqs. […] For the remaining drugs the fraction reabsorbed (Freab) was calculated using Eq.
GFR values for healthy subjects may vary as a result of biological as well as inter-individual variation and also the method of measurement. […] Individual GFR values for subjects in clinical trials databases were generally not available.
In the proposed model, the nephron is represented as five compartments, namely the glomerulus and four tubular regions, as depicted in Fig. 1. The tubular compartments in the model, listed in anatomical order starting from the glomerulus are: the proximal tubule (PT), the loop of Henle (LoH), the distal tubule (DT) and the collecting duct (CD). […] The relationship between Freab′ and Freab is shown in Eq. (11). The predicted overall Freab′ was calculated from the predicted Freab′ in each (i) tubular region (Freab,i′), as shown in Eq. (12).

[5] = LogD6.5 estimated from LogD7.4 and pKa; settings: octanol/buffer, pH 6.5
Description: as §1

[6] = pKa, potentiometric AstraZeneca in-house assay (or ACD / BioByte)
Description: as §1

Caco-2 cell monolayers = assay: Caco-2 apparent permeability (Papp), apical to basolateral, pH 6.5-7.4 gradient, efflux inhibitor cocktail; settings: Caco-2, apical to basolateral, pH 6.5 to 7.4, efflux inhibitor cocktail, 2 h
Protocol: as §2

[7] = Papp-Freab′ calibration of Caco-2 Papp with reference drugs and CLR prediction; set-up: species or system human; settings: reference drugs; calibrated Caco-2 Papp after Hill equation fitting
Description: To account for this and to allow the Caco-2 data in the present study to be transferable to other assay formats/laboratories, a Papp–Freab′ calibration method was explored by splitting the available Papp and Freab′ data into ‘reference’ and internal ‘validation’ subsets. […] The calibration approach is proposed as a pragmatic method to account for inter-assay/inter-laboratory differences; herein it is applied to the current dataset only, and not external data as intended for future studies.
In order to evaluate the application of Papp–Freab′ calibration (Eq. (17)), 11 drugs were selected as reference ‘calibrator’ drugs (Papp,ref) covering a representative range of Freab′ and Papp values (Table 5). The remaining 34 drugs were treated as an internal ‘validation’ set.

[8] = pKa (acid), measured, potentiometric

## COc1ccc(C(CN(C)C)C2(O)CCCCC2)cc1 (stereo not shown) [Venlafaxine]
physchem
  logD: 0.95
[1]
  Papp A→B at 2 h: 27.6 ×10⁻⁶ cm/s
[2]
  CLR: 80.0 mL/min
  Overall weighted mean CLR: 80.0 mL/min
  CLR Observed: 80.00 mL/min
[3]
  Ionisation at pH 6.5: Base
[4]
  Apparent Freab: 0.088
  Apparent Freab’: 0.089
  Freab: 0.09
[5]
  logD: 0.05

## CN1CCN(c2cc3c(cc2F)c(=O)c(C(=O)O)cn3-c2ccc(F)cc2)CC1 [Difloxacin]
[6]; [8]
  pKa: 5.81
[6]; pKa (base), measured, potentiometric
  pKa: 7.39
[1]
  Papp A→B at 2 h: 74.6 ×10⁻⁶ cm/s
[2]
  CLR: 4.54 mL/min
  Overall weighted mean CLR: 4.5 mL/min
  CLR Observed: 4.54 mL/min
[3]
  Ionisation at pH 6.5: Zwitterion
[4]
  Apparent Freab: 0.939
  Apparent Freab’: 0.947
  Freab: 0.94

## CC1(C)O[C@@H]2[C@@H](CO[C@@]3(COS(N)(=O)=O)OC(C)(C)O[C@@H]23)O1 [Topiramate]
physchem; octanol/buffer
  logD: 0.6
[1]
  Papp A→B at 2 h: 46.2 ×10⁻⁶ cm/s
[2]
  CLR: 15.1 mL/min
  Overall weighted mean CLR: 15.1 mL/min
  CLR Observed: 15.05 mL/min
[3]
  Ionisation at pH 6.5: Neutral
[4]
  Apparent Freab: 0.856
  Apparent Freab’: 0.863
  Freab: 0.86
[5]
  logD: 0.61

## Cc1cc(NC(=O)C2=C(O)c3ccccc3S(=O)(=O)N2C)no1 [Isoxicam]
[6]; [8]
  pKa: 3.84
[1]
  Papp A→B at 2 h: 142 ×10⁻⁶ cm/s
[2]
  CLR: 0.02 mL/min
  CLR Observed: 0.02 mL/min
[2]; listed as isoxicam
  CLR: 0.022 mL/min
[3]
  Ionisation at pH 6.5: Acid
[4]
  Apparent Freab: 0.995
  Apparent Freab’: 1.003
  Freab: 1.00
[4]; listed as isoxicam
  Freab: ≥ 0.99
[4]; observed, fraction of equilibrium reached between urine and plasma
  Freab′: 1
[5]
  logD: 0.7

## CN(C)CCC=C1c2ccccc2COc2ccccc21 [Doxepin]
physchem; octanol/buffer
  logD: 2.23
[1]
  Papp A→B at 2 h: 36.5 ×10⁻⁶ cm/s
[2]
  CLR: 9.75 mL/min
  Overall weighted mean CLR: 9.8 mL/min
  CLR Observed: 9.75 mL/min
[3]
  Ionisation at pH 6.5: Base
[4]
  Apparent Freab: 0.638
  Apparent Freab’: 0.643
  Freab: 0.64
[5]
  logD: 1.41

## CCCCC1=NC2(CCCC2)C(=O)N1Cc1ccc(-c2ccccc2-c2nnn[nH]2)cc1 [Irbesartan]
physchem; octanol/buffer
  logD: 1.29
[6]; [8]
  pKa: 3.91
[1]
  Papp A→B at 2 h: 44 ×10⁻⁶ cm/s
[2]
  CLR: 2.37 mL/min
  Overall weighted mean CLR: 2.4 mL/min
  CLR Observed: 2.37 mL/min
[3]
  Ionisation at pH 6.5: Acid
[4]
  Apparent Freab: 0.623
  Apparent Freab’: 0.628
  Freab: 0.62
[5]
  logD: 2.19

## COCCc1ccc(OCC(O)CNC(C)C)cc1 (stereo not shown) [Metoprolol]
[6]
  pKa: 9.4
[1]
  Papp A→B at 2 h: 17 ×10⁻⁶ cm/s
[2]
  CLR: 110 mL/min
  Overall weighted mean CLR: 109.6 mL/min
  CLR Observed: 109.58 mL/min
[3]
  Ionisation at pH 6.5: Base
[4]
  Apparent Freab: -0.050
  Apparent Freab’: -0.050

## CN(C)[C@@H]1C(O)=C(C(N)=O)C(=O)[C@@]2(O)C(O)=C3C(=O)c4c(O)cccc4[C@@](C)(O)[C@H]3[C@H](O)[C@@H]12 [Oxytetracycline]
[1]
  Papp A→B at 2 h: 0.85 ×10⁻⁶ cm/s
Caco-2 cell monolayers
  Papp: 0.85 × 10^− 6 cm/s
[7]
  Papp,ref,calibrated: 0.01 × 10^− 6 cm/s
[2]
  CLR: 90.8 mL/min
  Overall weighted mean CLR: 90.8 mL/min
  CLR Observed: 90.80 mL/min
[3]
  Ionisation at pH 6.5: Zwitterion
[4]
  Apparent Freab: 0.019
  Apparent Freab’: 0.019
  Freab: 0.02

## Cc1c(F)c(N2CCNC(C)C2)cc2c1c(=O)c(C(=O)O)cn2C1CC1 (stereo not shown) [Grepafloxacin]
physchem; octanol/buffer
  logD: 0.5
[1]
  Papp A→B at 2 h: 110 ×10⁻⁶ cm/s
[2]
  CLR: 47.6 mL/min
  Overall weighted mean CLR: 47.6 mL/min
  CLR Observed: 47.60 mL/min
[3]
  Ionisation at pH 6.5: Zwitterion
[4]
  Apparent Freab: 0.350
  Apparent Freab’: 0.353
  Freab: 0.35
[5]
  logD: 0.5
